According to paper PMC8316236, “Mechanistic physiology-based pharmacokinetic modeling to elucidate vincristine-induced peripheral neuropathy following treatment with novel kinase inhibitors” (Cancer Chemotherapy and Pharmacology, 2021):

How the values were obtained:
[1] = target: T1, P-glycoprotein (P-gp, ABCB1) (Homo sapiens, UniProt P08183); experiment: inside-out vesicular transport inhibition assay with tritiated probe substrate; assay type: biochemical
T1 construct: inside-out membrane vesicles prepared from HEK293 cells overexpressing human P-gp
T1 sequence (P08183 whole entry): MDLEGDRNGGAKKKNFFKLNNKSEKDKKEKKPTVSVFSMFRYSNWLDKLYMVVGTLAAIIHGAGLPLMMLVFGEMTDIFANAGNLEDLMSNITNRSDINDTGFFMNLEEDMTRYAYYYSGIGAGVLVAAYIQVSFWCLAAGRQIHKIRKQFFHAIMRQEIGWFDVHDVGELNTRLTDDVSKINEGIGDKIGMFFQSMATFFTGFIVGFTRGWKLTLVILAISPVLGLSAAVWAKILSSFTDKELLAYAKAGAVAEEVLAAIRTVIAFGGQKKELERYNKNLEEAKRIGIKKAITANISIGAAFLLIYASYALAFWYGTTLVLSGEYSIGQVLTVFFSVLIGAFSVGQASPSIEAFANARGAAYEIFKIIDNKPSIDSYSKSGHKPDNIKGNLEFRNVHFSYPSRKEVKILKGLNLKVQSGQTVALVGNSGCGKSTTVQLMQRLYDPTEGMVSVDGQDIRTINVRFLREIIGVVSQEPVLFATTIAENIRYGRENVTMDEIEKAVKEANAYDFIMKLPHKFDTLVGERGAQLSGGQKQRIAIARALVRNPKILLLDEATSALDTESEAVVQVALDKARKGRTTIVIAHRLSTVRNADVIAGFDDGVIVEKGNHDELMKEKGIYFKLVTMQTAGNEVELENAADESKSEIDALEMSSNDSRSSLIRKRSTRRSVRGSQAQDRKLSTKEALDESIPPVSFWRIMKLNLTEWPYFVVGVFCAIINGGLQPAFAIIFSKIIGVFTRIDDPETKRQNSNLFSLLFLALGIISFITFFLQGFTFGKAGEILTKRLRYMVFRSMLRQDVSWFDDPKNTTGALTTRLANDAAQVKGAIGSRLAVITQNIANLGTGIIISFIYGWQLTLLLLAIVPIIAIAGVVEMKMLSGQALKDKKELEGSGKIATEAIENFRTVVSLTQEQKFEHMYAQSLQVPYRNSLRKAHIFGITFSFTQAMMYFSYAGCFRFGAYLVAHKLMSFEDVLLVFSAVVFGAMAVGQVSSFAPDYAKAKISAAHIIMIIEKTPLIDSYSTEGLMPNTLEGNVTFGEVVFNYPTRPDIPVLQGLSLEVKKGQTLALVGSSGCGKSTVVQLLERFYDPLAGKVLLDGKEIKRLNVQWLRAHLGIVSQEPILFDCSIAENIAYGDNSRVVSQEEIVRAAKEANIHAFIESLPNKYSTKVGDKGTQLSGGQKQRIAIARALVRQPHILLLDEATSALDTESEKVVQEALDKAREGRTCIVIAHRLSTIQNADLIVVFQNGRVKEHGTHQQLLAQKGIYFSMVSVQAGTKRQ

[2] = target: T1, P-glycoprotein (P-gp, ABCB1); experiment: inside-out vesicular transport inhibition assay with tritiated probe substrate; also Caco-2 bidirectional transport ([…]); assay type: biochemical

C=CC(=O)N1CCC[C@@H](n2nc(-c3ccc(Oc4ccccc4)cc3)c3c(N)ncnc32)C1 [ibrutinib]
IC50 [1]: 6 µM

CC#CC(=O)N1CCC[C@H]1c1nc(-c2ccc(C(=O)Nc3ccccn3)cc2)c2c(N)nccn12 [acalabrutinib]
IC50 [2]: 57 µM
